From patent US9211310B2, “Use of a Chinese medicine composition in preparing medicaments for treating secondary prevention of myocardial infarction” (TASLY PHARMACEUTICAL GROUP CO., LTD, priority 2010, dated 2015)

System: patients after acute myocardial infarction
Assay: Life quality, Seattle Angina Questionnaire (SAQ), same clinical trial
Assay type: in vivo, human
From the text: 3508 patients who were in accordance with the diagnostic standards of AMI for 28 days to 2 years and differentiated as Qi deficiency and blood stagnation syndrome by TCM were studied. 0.5 g Chinese medicine composition prepared by the method of EXAMPLE 1 (Coded as QSYQ) was administrated half an hour after meal, 3 times per day.
There were 19 questions in the Seattle angina questionnaire (SAQ), including 5 parts: physical limitation (PL), anginal stability (AS), anginal frequency (AF), treatment satisfaction (TS) and disease perception (DP). After being given necessary explanation by doctors, the questions were answered independently by patients.
They included the overall survival time, angina pectoris score, TCM symptom score and life quality score, where angina pectoris score, TCM symptom score and life quality score were evaluated at randomization, in 1st, 3rd, 6th, 9th, 12th month after treatment and 18th month after follow-up.
All evaluation results of SAQ were described during the period of observation, and Wilcoxon rank sum test was used for inter-group comparison.
The evaluation results in the SAQ were depicted in different observations, and inter-group comparison was tested by Wilcoxon Rank-sum test.

CC(=O)Oc1ccccc1C(=O)O [Control group, aspirine]
SAQ Question 1-9: Other reasons, % of cases (Baseline, FAS): (5.84%)
SAQ Question 1-9: Other reasons, cases (Baseline, FAS): 99
SAQ Question 1-9: Severely limited, % of cases (Baseline, FAS): (47.34%)
SAQ Question 1-9: Severely limited, cases (Baseline, FAS): 802
SAQ Question 1-9: Slightly limited, % of cases (Baseline, FAS): (8.56%)
SAQ Question 1-9: Slightly limited, cases (Baseline, FAS): 145
SAQ 2nd question: Clearly increased, % of cases (Baseline, PP): (3.09%)
SAQ 2nd question: Clearly increased, cases (Baseline, PP): 46
SAQ 2nd question: Clearly reduced, % of cases (Baseline, PP): (12.16%)
SAQ 2nd question: Clearly reduced, cases (Baseline, PP): 181
SAQ 2nd question: Same, % of cases (Baseline, PP): (63.00%)
SAQ 2nd question: Same, cases (Baseline, PP): 938
SAQ 2nd question: Slightly increased, % of cases (Baseline, PP): (6.72%)
SAQ 2nd question: Slightly increased, cases (Baseline, PP): 100
SAQ 2nd question: Slightly reduced, % of cases (Baseline, PP): (15.04%)
SAQ 2nd question: Slightly reduced, cases (Baseline, PP): 224
SAQ 3rd question: 1-2 times per week, % of cases (Baseline, PP): (15.04%)
SAQ 3rd question: 1-2 times per week, cases (Baseline, PP): 224
SAQ 3rd question: 1-3 times per day, % of cases (Baseline, PP): (6.72%)
SAQ 3rd question: 1-3 times per day, cases (Baseline, PP): 100
SAQ 3rd question: <1 time per week, % of cases (Baseline, PP): (12.16%)
SAQ 3rd question: <1 time per week, cases (Baseline, PP): 181
SAQ 3rd question: No onset, % of cases (Baseline, PP): (0.00%)
SAQ 3rd question: No onset, cases (Baseline, PP): 0
SAQ 3rd question: ≧3 times per week, % of cases (Baseline, PP): (63.00%)
SAQ 3rd question: ≧3 times per week, cases (Baseline, PP): 938
SAQ 3rd question: ≧4 times per day, % of cases (Baseline, PP): (3.09%)
SAQ 3rd question: ≧4 times per day, cases (Baseline, PP): 46
SAQ Question 1-3: Mildly limited, number of patients (Baseline, PP): 135
SAQ Question 1-3: Mildly limited, percent of patients (Baseline, PP): (9.04%)
SAQ Question 1-3: Moderately limited, number of patients (Baseline, PP): 44
SAQ Question 1-3: Moderately limited, percent of patients (Baseline, PP): (2.95%)
SAQ Question 1-3: Not limited, number of patients (Baseline, PP): 985
SAQ Question 1-3: Not limited, percent of patients (Baseline, PP): (65.97%)
SAQ Question 1-3: Other reasons, number of patients (Baseline, PP): 10
SAQ Question 1-3: Other reasons, percent of patients (Baseline, PP): (0.67%)
SAQ Question 1-3: Severely limited, number of patients (Baseline, PP): 12
SAQ Question 1-3: Severely limited, percent of patients (Baseline, PP): (0.80%)
SAQ Question 1-3: Slightly limited, number of patients (Baseline, PP): 307
SAQ Question 1-3: Slightly limited, percent of patients (Baseline, PP): (20.56%)
SAQ Question 1-4: Mildly limited, number of patients (Baseline, PP): 347
SAQ Question 1-4: Mildly limited, percent of patients (Baseline, PP): (23.30%)
SAQ Question 1-4: Moderately limited, number of patients (Baseline, PP): 185
SAQ Question 1-4: Moderately limited, percent of patients (Baseline, PP): (12.42%)
SAQ Question 1-4: Not limited, number of patients (Baseline, PP): 414
SAQ Question 1-4: Not limited, percent of patients (Baseline, PP): (27.80%)
SAQ Question 1-4: Other reasons, number of patients (Baseline, PP): 14
SAQ Question 1-4: Other reasons, percent of patients (Baseline, PP): (0.94%)
SAQ Question 1-4: Severely limited, number of patients (Baseline, PP): 51
SAQ Question 1-4: Severely limited, percent of patients (Baseline, PP): (3.43%)
SAQ Question 1-4: Slightly limited, number of patients (Baseline, PP): 478
SAQ Question 1-4: Slightly limited, percent of patients (Baseline, PP): (32.10%)
SAQ Question 1-5: Mildly limited, number of patients (Baseline, PP): 309
SAQ Question 1-5: Mildly limited, percent of patients (Baseline, PP): (20.72%)
SAQ Question 1-5: Moderately limited, number of patients (Baseline, PP): 210
SAQ Question 1-5: Moderately limited, percent of patients (Baseline, PP): (14.08%)
SAQ Question 1-5: Not limited, number of patients (Baseline, PP): 473
SAQ Question 1-5: Not limited, percent of patients (Baseline, PP): (31.72%)
SAQ Question 1-5: Other reasons, number of patients (Baseline, PP): 12
SAQ Question 1-5: Other reasons, percent of patients (Baseline, PP): (0.80%)
SAQ Question 1-5: Severely limited, number of patients (Baseline, PP): 46
SAQ Question 1-5: Severely limited, percent of patients (Baseline, PP): (3.09%)
SAQ Question 1-5: Slightly limited, number of patients (Baseline, PP): 441
SAQ Question 1-5: Slightly limited, percent of patients (Baseline, PP): (29.58%)
SAQ Question 1-9: Mildly limited, % of cases (Baseline, PP): (14.67%)
SAQ Question 1-9: Mildly limited, cases (Baseline, PP): 213
SAQ Question 1-9: Moderately limited, % of cases (Baseline, PP): (20.73%)
SAQ Question 1-9: Moderately limited, cases (Baseline, PP): 301
SAQ Question 1-9: Not limited, % of cases (Baseline, PP): (2.27%)
SAQ Question 1-9: Not limited, cases (Baseline, PP): 33
SAQ Question 1-9: Other reasons, % of cases (Baseline, PP): (6.34%)
SAQ Question 1-9: Other reasons, cases (Baseline, PP): 92
SAQ Question 1-9: Severely limited, % of cases (Baseline, PP): (48.55%)
SAQ Question 1-9: Severely limited, cases (Baseline, PP): 705
SAQ Question 1-9: Slightly limited, % of cases (Baseline, PP): (7.44%)
SAQ Question 1-9: Slightly limited, cases (Baseline, PP): 108
8th question: Dissatisfied, patients (%) (FAS, 1 month after treatment): (0.34%)
